Key:
[1] = test system: Capan-2 cells (KRAS G12V); experiment: 3D Cell viability assay in Capan-2 cells (Biological Example 6); format: cell-based; conditions: Capan-2 (KRAS G12V) spheroids, 72 hours
Procedure: (§1) Biological Example 6: 3D Cell viability assay in AsPC-1, SW1900, HPAC, Capan-2, RKN, H358, HCT116, KP-2, H1573, A549, MKN1, and HT1080 cells
(§2) The inhibition of cellular viability as a result of test compound treatment in a spheroid assay was measured using the CellTiter-Glow 3D Cell Viability Assay (Promega).
(§3) On Day 1, 1000 cells per well were seeded in 150 μL of complete growth media supplemented with 10% fetal bovine serum (FBS) and incubated at 37° C., in the presence of 5% CO2 in 96-well ultra-low attachment microplates (Corning) for 48 hours undisturbed to allow spheroids to form.
(§4) Following spheroid formation, cells were treated with compounds diluted in DMSO at 0.25% final DMSO concentration. Compounds were dosed in a 9-point concentration curve with three-fold dilution between concentrations. Cells were incubated in the presence of compound for 72 hours at 37° C., in the presence of 5% CO2.
(§5) Following this incubation period, the kit-provided CTG reagent was allowed to equilibrate for 30 minutes at room temperature, 150 μL of equilibrated CTG reagent was added to each well, and the plate was sealed before shaking at 250 rpm for 10 minutes at room temperature to lyse the cells, 150 μL of lysate per well was transferred to a 96-well plate and luminescence was read on a CLARIOstar plate reader.
(§6) Data was imported into the Prism software package (Graphpad) and EC50 values were calculated using the log (inhibitor) vs, response—variable slope (Four parameters) model.

H358 cells (KRAS G12C) = experiment: Cell-based pERK HTRF assay in H358 cells (Biological Example 5)
Procedure: (§7) Biological Example 5: Cell-based PERK HTRF assay in AsPC-1, SW1900, HPAC, Capan-2, RKN, H358, HCT116, KP-2, H1573, A549, MKN1, and HT1080 cells
(§8) The inhibition of ERK phosphorylation, as measured using the HTRF Advanced Phospho-ERK 1/2 (Thr202/Tyr204) Detection Assay kit (Perkin Elmer), was used to determine the effectiveness of test compounds in disrupting KRAS-driven protein/effector signaling in cells.
(§9) On day 1, cells were seeded into 96-well plates at 2.5×10^4 cells/well in 100 μL of complete growth media supplemented with 10% fetal bovine serum (FBS) and incubated at 37° C., in the presence of 5% CO2.
(§10) On day 2, cells were treated with compounds diluted in DMSO at 0.25% final DMSO concentration. Compounds were dosed in a 9-point concentration curve with three-fold dilution between concentrations. Cells were incubated in the presence of compound for two hours at 37° C. Following this treatment period, cells were harvested by aspirating the media, adding 40 μL of kit-supplied 1x lysis buffer per well, and shaking for 30 minutes at 250 rpm at room temperature.
(§11) Following cell lysis, samples were homogenized by pipetting up and down twenty times and 16 μL of cell lysate per well was transferred from the 96-well cell culture plate to two wells of a 384-well detection plate. A complete detection buffer was prepared by diluting D2 and Eu Cryptate antibodies 1:20 in kit-provided detection solution, 4 μL of complete detection buffer was then added to each well with lysate. Plates were incubated with gentle rocking for 24 hours at 4° C.
(§12) Following this incubation period, plates were centrifuged at 500×g for one minute and analyzed on a CLARIOstar plate reader. Data was imported into Microsoft Excel and the signal from the 665 nm channel was divided by the signal from the 620 nm channel. % pERK was calculated as: […]
(§13) Data was imported to the Prism software package (Graphpad) and EC50 values were calculated using the log (inhibitor) vs, response—variable slopc (Four parameters) model.

[2] = molecular target: T1, Avi-KRAS G12C (2-169) GTP/RAF1 RBD-3xFLAG (51-131) (Homo sapiens, UniProt P01116, G12C); experiment: Raf1-KRAS G12C-GTP disruption HTRF assay (Biological Example 3); format: binding; conditions: KRAS G12C, GTP-loaded
T1 construct: Avi-KRAS G12C (2-169)
T1 sequence (P01116 2-169 isoform P01116-2 G12C): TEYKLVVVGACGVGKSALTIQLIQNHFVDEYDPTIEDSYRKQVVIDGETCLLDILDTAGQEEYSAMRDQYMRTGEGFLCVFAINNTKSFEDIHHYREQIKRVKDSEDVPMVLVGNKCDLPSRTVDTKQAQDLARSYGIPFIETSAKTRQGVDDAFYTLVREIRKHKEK
In short: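 Compounds were titrated 10-point, 3-fold from 30 μM against preformed KRAS-GTP:RAF1 RBD (51-131) complexes at 50 nM, using KRAS 2-169 as WT, G12C, G12D or G12V. After 1 h at room temperature in Tris pH 7.5 buffer with MgCl2 and 10% DMSO, time-resolved fluorescence was read. Results are percent activity versus DMSO.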

HPAC cells (KRAS G12D) = experiment: 3D Cell viability assay in HPAC cells (Biological Example 6); format: cell-based; conditions: HPAC (KRAS G12D) spheroids
Procedure: as §1, §2, §3, §4, §5, §6

RKN cells (KRAS G12V) = experiment: Cell-based pERK HTRF assay in RKN cells (Biological Example 5)
Procedure: as §7, §8, §9, §10, §11, §12, §13

[3] = test system: Capan-2 cells (KRAS G12V); experiment: Cell-based pERK HTRF assay in Capan-2 cells (Biological Example 5)
Procedure: as §7, §8, §9, §10, §11, §12, §13

[4] = Homo sapiens, NCI-H358, H358 (KRAS G12C) cells
[5] = Homo sapiens, Capan-2, Capan-2 (KRAS G12V) cells

Row | SMILES | IC50 (H358 cells (KRAS G12C); [4]) [nM] | IC50 [2] [nM] | IC50 (RKN cells (KRAS G12V)) [nM] | IC50 [3, 5] [nM] | IC50 (H358 cells (KRAS G12C); H358 (KRAS G12C) cells) [nM] | IC50 ([3]; Capan-2 (KRAS G12V) cells) [nM] | IC50 ([1]; Homo sapiens) [nM] | IC50 (HPAC cells (KRAS G12D); Homo sapiens, HPAC, 72 h) [nM] | IC50 [1] [nM] | IC50 (HPAC cells (KRAS G12D); 72 hours) [nM]
1 | CCN(c1nc(OC[C@@]23CCCN2C[C@H](F)C3)nc2c(F)c(-c3ccc(F)c4sc(N)c(C#N)c34)c(C(F)(F)F)cc12)[C@H]1CCN(C(=O)N2CC(F)C2)C1 (atropisomer, axis not shown) [Compound 606] | ≤ 100 | ≤ 100 | ≤ 100 | ≤ 100 |  |  | ≤ 100 | 100 to 1000 |  | 
2 | C/C=C/C(=O)N1CC[C@H](N(CC)c2nc(OC[C@@]34CCCN3C[C@H](F)C4)nc3c(F)c(-c4ccc(F)c5sc(N)c(C#N)c45)c(C(F)(F)F)cc23)C1 (atropisomer, axis not shown) [Compound 674] | ≤ 100 | ≤ 100 | ≤ 100 | ≤ 100 |  |  | ≤ 100 | ≤ 100 |  | 
3 | C[C@H]1Cn2nc(C(=O)N(C)C)cc2CN1c1nc(OC[C@@]23CCCN2C[C@H](F)C3)nc2c(F)c(-c3ccc(F)c4sc(N)c(C#N)c34)c(C(F)(F)F)cc12 (atropisomer, axis not shown) [Compound 610] | ≤ 100 | 100 to 1000 | ≤ 100 | ≤ 100 |  |  | ≤ 100 | 100 to 1000 |  | 
4 | N#Cc1cnn2c1CN(c1nc(OC[C@@]34CCCN3C[C@H](F)C4)nc3c(F)c(-c4ccc(F)c5sc(N)c(C#N)c45)c(C(F)(F)F)cc13)CC2 [Compound 392] | ≤ 100 |  | ≤ 100 | 100 to 1000 |  |  | 100 to 1000 | 100 to 1000 |  | 
5 | CCN(c1nc(OC[C@@]23CCCN2C[C@H](F)C3)nc2c(F)c(-c3ccc(F)c4sc(N)c(C#N)c34)c(C(F)(F)F)cc12)[C@H]1CCN(C(=O)c2ncco2)C1 (atropisomer, axis not shown) [Compound 584] | ≤ 100 |  | ≤ 100 | ≤ 100 |  |  | ≤ 100 | ≤ 100 |  | 
6 | CCN(c1nc(OC[C@@]23CCCN2C[C@H](F)C3)nc2c(F)c(-c3ccc(F)c4sc(N)c(C#N)c34)c(C(F)(F)F)cc12)[C@H]1CC(=O)N2CCC[C@@H]12 (atropisomer, axis not shown; (aS)) [Compound 697, 2-amino-4-((S)-4-(ethyl((1S,7aS)-3-oxohexahydro-1H-pyrrolizin-1-yl)amino)-8-fluoro-2-(((2R,7aS)-2-fluorotetrahydro-1H-pyrrolizin-7a(5H)-yl)methoxy)-6-(trifluoromethyl)quinazolin-7-yl)-7-fluorobenzo[b]thiophene-3-carbonitrile] | ≤ 100 | ≤ 100 | ≤ 100 | ≤ 100 |  |  | ≤ 100 | ≤ 100 |  | 

Now from value to compound, other results behind:

Row | IC50 (H358 cells (KRAS G12C); [4]) [nM] | IC50 [2] [nM] | IC50 (RKN cells (KRAS G12V)) [nM] | IC50 [3, 5] [nM] | IC50 (H358 cells (KRAS G12C); H358 (KRAS G12C) cells) [nM] | IC50 ([3]; Capan-2 (KRAS G12V) cells) [nM] | SMILES | IC50 ([1]; Homo sapiens) [nM] | IC50 (HPAC cells (KRAS G12D); Homo sapiens, HPAC, 72 h) [nM] | IC50 [1] [nM] | IC50 (HPAC cells (KRAS G12D); 72 hours) [nM]
7 | ≤ 100 | 100 to 1000 | ≤ 100 | ≤ 100 |  |  | CCN(c1nc(OC[C@@]23CCCN2C[C@H](F)C3)nc2c(F)c(-c3ccc(F)c4sc(N)c(C#N)c34)c(C(F)(F)F)cc12)[C@H]1C[C@H](C)N(C(=O)N2CC(OC)C2)C1 (atropisomer, axis not shown) [Compound 764] | ≤ 100 | > 1000 |  | 
8 |  |  | ≤ 100 |  | ≤ 100 | ≤ 100 | CN(c1nc(OC[C@@]23CCCN2C[C@H](F)C3)nc2c(F)c(-c3ccc(F)c4sc(N)c(C#N)c34)c(C(F)(F)F)cc12)[C@H]1C[C@@H](O)C1 [Compound 19, 2-amino-7-fluoro-4-((S)-8-fluoro-2-(((2R,7aS)-2-fluorotetrahydro-1H-pyrrolizin-7a(5H)-yl)methoxy)-4-(((1s,3R)-3-hydroxycyclobutyl)(methyl)amino)-6-(trifluoromethyl)quinazolin-7-yl)benzo[b]thiophene-3-carbonitrile] |  |  | 100 to 1000 | 100 to 1000
9 | ≤ 100 |  | ≤ 100 | ≤ 100 |  |  | CCN(c1nc(OC[C@@]23CCCN2C[C@H](F)C3)nc2c(F)c(-c3ccc(F)c4sc(N)c(C#N)c34)c(C(F)(F)F)cc12)[C@@H]1CCN(C(C)=O)C1 [Compound 268] | ≤ 100 | ≤ 100 |  | 
10 |  |  | ≤ 100 |  | ≤ 100 | ≤ 100 | Cc1c(C(=O)N(C)C)nn2c1CN(c1nc(OC[C@@]34CCCN3C[C@H](F)C4)nc3c(F)c(-c4ccc(F)c5sc(N)c(C#N)c45)c(C(F)(F)F)cc13)CC2 (atropisomer, axis not shown; (aS)) [Compound 590, 5-((S)-7-(2-amino-3-cyano-7-fluorobenzo[b]thiophen-4-yl)-8-fluoro-2-(((2R,7aS)-2-fluorotetrahydro-1H-pyrrolizin-7a(5H)-yl)methoxy)-6-(trifluoromethyl)quinazolin-4-yl)-N,N,3-trimethyl-4,5,6,7-tetrahydropyrazolo[1,5-a]pyrazine-2-carboxamide] |  |  | ≤ 100 | ≤ 100
11 |  | 100 to 1000 | ≤ 100 |  | ≤ 100 | ≤ 100 | CCN(c1nc(OCC23CCCN2CC(F)C3)nc2c(F)c(-c3ccc(F)c4sc(N)c(C#N)c34)c(C(F)(F)F)cc12)C1CC(C)N(C(=O)C2CC2(F)F)C1 (centres unmarked) [Compound 732] |  |  | ≤ 100 | ≤ 100
12 | ≤ 100 |  | ≤ 100 | ≤ 100 |  |  | CCC(=O)N1C[C@@H](N(CC)c2nc(OC[C@@]34CCCN3C[C@H](F)C4)nc3c(F)c(-c4ccc(F)c5sc(N)c(C#N)c45)c(C(F)(F)F)cc23)C[C@H]1C [Compound 442] | ≤ 100 | 100 to 1000 |  | 
13 |  |  | ≤ 100 |  | ≤ 100 | ≤ 100 | CCN(c1nc(OC[C@@]23CCCN2C[C@H](F)C3)nc2c(F)c(-c3ccc(F)c4sc(N)c(C#N)c34)c(C(F)(F)F)cc12)[C@H]1CCN(C(=O)C(C)C)C1 [Compound 332] | ≤ 100 | 100 to 1000 |  | 

Reference: patent publication US20260042764A1, “COMPOSITIONS AND METHODS FOR INHIBITION OF KRAS” (TheRas, Inc., priority 2022, published 2026)
